Assay results reported in patent US11578055B2, “Triazacyclododecansulfonamide (“TCD”)-based protein secretion inhibitors” (KEZAR LIFE SCIENCES, priority 2018, dated 2023).

What was measured:
[1] = system: PD1 signal sequence plus 10 amino acids fused to Gaussia Luciferase (PD1-ss+10aa/Gaussia Luciferase); assay: Dox Induced PD1-ss-Gluc Assay; assay type: cell-based; settings: 24 hr, 293FRT/TO; read-out: 24 hr Dox Inducible PD1ssGluc 293FRT/TO: Mean IC50
Method in brief: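 Compound dilutions in DMSO/media containing doxycycline were applied to a stable, inducible 293 T-REx line carrying the luciferase fusion, then incubated at 37 °C, 5% CO2. Where stereochemistry is not drawn, values relate to isomer mixtures.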

[2] = system: full length TNFα (amino acids 1-233) fused to Gaussia Luciferase; assay: Dox Induced TNFα-FL-Gluc Assay; assay type: cell-based; settings: 24 hr, 293FRT/TO; read-out: 24 hr Dox Inducible TNFaFLGluc 293FRT/TO: Mean IC50
Method in brief: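 Compounds diluted in DMSO/medium with doxycycline were incubated at 37° C, 5% CO2 with 293 T-REx cells stably carrying a Tet-regulated TNFα(1-233)-Gaussia luciferase construct. Data for structures drawn without stereochemistry refer to stereoisomer mixtures.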

[3] = system: multiple myeloma cell line NCl-H929; assay: H929 Cell Viability Assay; assay type: cell-based, human; settings: Homo sapiens, NCI-H929, 48 h, H929, read-out: 48 hr H929 Viability Celltiter-Glo: Mean EC50
Method in brief: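 Viability was determined by CellTiter-Glo luminescence after a 48 h, 37 °C exposure of NCI-H929 cells to serial compound dilutions in medium containing 10% FBS. Where stereochemistry is not shown, values refer to a mix of stereoisomers.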

[4] = system: multiple myeloma cell line U266B1; assay: U266 Cell Viability Assay; assay type: cell-based, human; settings: Homo sapiens, U-266; 48 hr, U266; read-out: 48 hr U266 Viability Celltiter-Glo: Mean EC50
Method in brief: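 Viability was measured by CellTiter-Glo luminescence after 48 h compound exposure at 37° C, 5% CO2. The cells were U266B1 multiple myeloma cells grown in RPMI 1640 plus 10% FBS. Where stereochemistry is not shown, values apply to the stereoisomer mixture.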

[5] = In Vitro Microsome Stability Assay (human); assay type: in vitro ADME; settings: human, 30 min, NADPH
Method in brief: (§1)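 The value reported is the percentage of parent left after 30 min, calculated from analyte/IS peak-area ratios relative to time zero by LC-MS/MS. Incubations ran at 37° C in 0.1 M potassium phosphate with NADPH and microsomes (stock 20 mg/mL), with compound added from a 0.25 mM DMSO stock. Acetonitrile containing IS stopped the reactions.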

[6] = In Vitro Microsome Stability Assay (mouse); assay type: in vitro ADME; settings: mouse, 30 min, NADPH
Method in brief: as §1

[7] = In Vitro Microsome Stability Assay (rat); assay type: in vitro ADME; settings: rat, 30 min, NADPH
Method in brief: as §1

[8] = In Vitro Microsome Stability Assay (monkey); assay type: in vitro ADME; settings: monkey, 30 min, NADPH
Method in brief: as §1

C=C1CN(S(=O)(=O)c2ccc(N(C)C)cc2)CCCN(CC2CCCCC2)CCCN(S(=O)(=O)N2CCN(c3ccccc3)[C@H](C)C2)C1 [A46, 4-{[9-(cyclohexylmethyl)-5-{[(3 R)-3-methyl-4-phenylpiperazin-1-yl]sulfonyl}-3-methylidene-1,5,9-triazacyclododecan-1-yl]sulfonyl}-N,N-dimethylaniline]
IC50 [1]: 50.1 nM | IC50 [2]: 1760 nM | EC50 [3]: 3340 nM | EC50 [4]: > 25000 nM | Liver Microsome Stability-% Left after 30 min w/ NADPH (%) Human [5]: 6.12% | Liver Microsome Stability-% Left after 30 min w/ NADPH (%) Mouse [6]: 3.63% | Liver Microsome Stability-% Left after 30 min w/ NADPH (%) Rat [7]: 4.46% | Liver Microsome Stability-% Left after 30 min w/ NADPH (%) Monkey [8]: 1.44%

C=C1CN(S(=O)(=O)c2ccc(N(C)C)cc2)CCCN(CC2CCCCC2)CCCN(S(=O)(=O)N2CCN(c3ccccc3)[C@@H](C)C2)C1 [A47, 4-{[9-(cyclohexylmethyl)-5-{[(3S)-3-methyl-4-phenylpiperazin-1-yl]sulfonyl}-3-methylidene-1,5,9-triazacyclododecan-1-yl]sulfonyl}-N,N-dimethylaniline]
IC50 [1]: 259 nM | IC50 [2]: > 25000 nM | EC50 [3]: > 25000 nM | EC50 [4]: > 25000 nM | Liver Microsome Stability-% Left after 30 min w/ NADPH (%) Human [5]: 12.6% | Liver Microsome Stability-% Left after 30 min w/ NADPH (%) Mouse [6]: 5.68% | Liver Microsome Stability-% Left after 30 min w/ NADPH (%) Rat [7]: 10.7% | Liver Microsome Stability-% Left after 30 min w/ NADPH (%) Monkey [8]: 1.68%

C=C1CN(S(=O)(=O)c2ccc(N(C)C)cc2)CCCN(CC2CCCCC2)CCCN(S(=O)(=O)N2CCN(c3ccccc3)C(=O)C2)C1 [A48, 4-{[9-(cyclohexylmethyl)-5-[4-(dimethylamino)benzenesulfonyl]-3-methylidene-1,5,9-triazacyclododecan-1-yl]sulfonyl}-1-phenylpiperazin-2-one]
IC50 [1]: 991 nM | IC50 [2]: > 25000 nM | EC50 [3]: > 25000 nM | EC50 [4]: > 25000 nM | Liver Microsome Stability-% Left after 30 min w/ NADPH (%) Human [5]: 0.19% | Liver Microsome Stability-% Left after 30 min w/ NADPH (%) Mouse [6]: 0.07% | Liver Microsome Stability-% Left after 30 min w/ NADPH (%) Rat [7]: 0.4% | Liver Microsome Stability-% Left after 30 min w/ NADPH (%) Monkey [8]: 0.1%

C=C1CN(S(=O)(=O)c2ccc(N(C)C)cc2)CCCN(CC2CCCCC2)CCCN(S(=O)(=O)N2CCC[C@H](c3ccccc3)C2)C1 [A49, 4-{[9-(cyclohexylmethyl)-3-methylidene-5-{[(3 R)-3-phenylpiperidin-1-yl]sulfonyl}-1,5,9-triazacyclododecan-1-yl]sulfonyl}-N,N-dimethylaniline]
IC50 [1]: 407 nM | IC50 [2]: > 25000 nM | EC50 [3]: > 25000 nM | EC50 [4]: > 25000 nM | Liver Microsome Stability-% Left after 30 min w/ NADPH (%) Human [5]: 3.5% | Liver Microsome Stability-% Left after 30 min w/ NADPH (%) Mouse [6]: 11.8% | Liver Microsome Stability-% Left after 30 min w/ NADPH (%) Rat [7]: 16.4% | Liver Microsome Stability-% Left after 30 min w/ NADPH (%) Monkey [8]: 9.36%

C=C1CN(S(=O)(=O)c2ccc(N(C)C)cc2)CCCN(CC2CCCCC2)CCCN(S(=O)(=O)N2CCc3cccc(Cl)c3C2)C1 [A51, 4-({5-[(8-chloro-1,2,3,4-tetrahydroisoquinolin-2-yl)sulfonyl]-9-(cyclohexylmethyl)-3-methylidene-1,5,9-triazacyclododecan-1-yl}sulfonyl)-N,N-dimethylaniline]
IC50 [1]: 61.4 nM | IC50 [2]: 3070 nM | EC50 [3]: 6150 nM | EC50 [4]: > 25000 nM | Liver Microsome Stability-% Left after 30 min w/ NADPH (%) Human [5]: 26.7% | Liver Microsome Stability-% Left after 30 min w/ NADPH (%) Mouse [6]: 28% | Liver Microsome Stability-% Left after 30 min w/ NADPH (%) Rat [7]: 34.7% | Liver Microsome Stability-% Left after 30 min w/ NADPH (%) Monkey [8]: 23.6%

C=C1CN(S(=O)(=O)c2ccc(N(C)C)cc2)CCCN(CC2CCCCC2)CCCN(S(=O)(=O)N2CCc3ccc(Cl)cc3C2)C1 [A52, 4-({5-[(7-chloro-1,2,3,4-tetrahydroisoquinolin-2-yl)sulfonyl]-9-(cyclohexylmethyl)-3-methylidene-1,5,9-triazacyclododecan-1-yl}sulfonyl)-N,N-dimethylaniline]
IC50 [1]: 45.6 nM | IC50 [2]: 1040 nM | EC50 [3]: 2110 nM | EC50 [4]: > 25000 nM | Liver Microsome Stability-% Left after 30 min w/ NADPH (%) Human [5]: 31% | Liver Microsome Stability-% Left after 30 min w/ NADPH (%) Mouse [6]: 29.3% | Liver Microsome Stability-% Left after 30 min w/ NADPH (%) Rat [7]: 40.1% | Liver Microsome Stability-% Left after 30 min w/ NADPH (%) Monkey [8]: 38.3%

C=C1CN(S(=O)(=O)c2ccc(N(C)C)cc2)CCCN(CC2CCCCC2)CCCN(S(=O)(=O)N2CCc3cc(Cl)ccc3C2)C1 [A53, 4-({5-[(6-chloro-1,2,3,4-tetrahydroisoquinolin-2-yl)sulfonyl]-9-(cyclohexylmethyl)-3-methylidene-1,5,9-triazacyclododecan-1-yl}sulfonyl)-N,N-dimethylaniline]
IC50 [1]: 35.3 nM | IC50 [2]: 1010 nM | EC50 [3]: 1720 nM | EC50 [4]: > 10300 nM | Liver Microsome Stability-% Left after 30 min w/ NADPH (%) Human [5]: 38% | Liver Microsome Stability-% Left after 30 min w/ NADPH (%) Mouse [6]: 39.2% | Liver Microsome Stability-% Left after 30 min w/ NADPH (%) Rat [7]: 50.5% | Liver Microsome Stability-% Left after 30 min w/ NADPH (%) Monkey [8]: 39%

C=C1CN(S(=O)(=O)c2ccc(N(C)C)cc2)CCCN(CC2CCCCC2)CCCN(S(=O)(=O)N2CCc3c(Cl)cccc3C2)C1 [A54, 4-({5-[(5-chloro-1,2,3,4-tetrahydroisoquinolin-2-yl)sulfonyl]-9-(cyclohexylmethyl)-3-methylidene-1,5,9-triazacyclododecan-1-yl}sulfonyl)-N,N-dimethylaniline]
IC50 [1]: 26.5 nM | IC50 [2]: 952 nM | EC50 [3]: 1910 nM | EC50 [4]: > 25000 nM | Liver Microsome Stability-% Left after 30 min w/ NADPH (%) Human [5]: 33.8% | Liver Microsome Stability-% Left after 30 min w/ NADPH (%) Mouse [6]: 34.6% | Liver Microsome Stability-% Left after 30 min w/ NADPH (%) Rat [7]: 42.4% | Liver Microsome Stability-% Left after 30 min w/ NADPH (%) Monkey [8]: 30.5%

CN(C)c1ccc(S(=O)(=O)N2CCCN(CC3CCCCC3)CCCN(S(=O)(=O)N3CCC(c4ccccc4)CC3)CC(O)C2)cc1 (stereo not drawn) [A55, 9-(cyclohexylmethyl)-1-[4-(dimethylamino)benzenesulfonyl]-5-[(4-phenylpiperidin-1-yl)sulfonyl]-1,5,9-triazacyclododecan-3-ol]
IC50 [1]: 1540 nM | IC50 [2]: > 25000 nM | EC50 [3]: > 25000 nM | EC50 [4]: > 25000 nM | Liver Microsome Stability-% Left after 30 min w/ NADPH (%) Human [5]: 4.87% | Liver Microsome Stability-% Left after 30 min w/ NADPH (%) Mouse [6]: 1.18% | Liver Microsome Stability-% Left after 30 min w/ NADPH (%) Rat [7]: 0.97% | Liver Microsome Stability-% Left after 30 min w/ NADPH (%) Monkey [8]: 0.34%

C=C1CN(S(=O)(=O)c2ccc(N(C)C)cc2F)CCCN(CC2CCCCC2)CCCN(S(=O)(=O)N2CCc3cc(Cl)ccc3C2)C1 [A56, 4-({5-[(6-chloro-1,2,3,4-tetrahydroisoquinolin-2-yl)sulfonyl]-9-(cyclohexylmethyl)-3-methylidene-1,5,9-triazacyclododecan-1-yl}sulfonyl)-3-fluoro-N,N-dimethylaniline]
IC50 [1]: 32.8 nM | IC50 [2]: 1260 nM | EC50 [3]: 1630 nM | EC50 [4]: > 25000 nM | Liver Microsome Stability-% Left after 30 min w/ NADPH (%) Human [5]: 44.5% | Liver Microsome Stability-% Left after 30 min w/ NADPH (%) Mouse [6]: 53.2% | Liver Microsome Stability-% Left after 30 min w/ NADPH (%) Rat [7]: 57.3% | Liver Microsome Stability-% Left after 30 min w/ NADPH (%) Monkey [8]: 42.6%

C=C1CN(S(=O)(=O)c2ccc(N(C)C)cc2)CCCN(CC2CCCCC2)CCCN(S(=O)(=O)N2CCC(c3ccccc3Cl)CC2)C1 [A57, 4-[(5-{[4-(2-chlorophenyl)piperidin-1-yl]sulfonyl}-9-(cyclohexylmethyl)-3-methylidene-1,5,9-triazacyclododecan-1-yl)sulfonyl]-N,N-dimethylaniline]
IC50 [1]: 73.4 nM | IC50 [2]: 7810 nM | EC50 [3]: > 25000 nM | EC50 [4]: > 25000 nM | Liver Microsome Stability-% Left after 30 min w/ NADPH (%) Human [5]: 31.9% | Liver Microsome Stability-% Left after 30 min w/ NADPH (%) Mouse [6]: 60.2% | Liver Microsome Stability-% Left after 30 min w/ NADPH (%) Rat [7]: 84% | Liver Microsome Stability-% Left after 30 min w/ NADPH (%) Monkey [8]: 28.5%

C=C1CN(S(=O)(=O)c2ccc(N(C)C)cc2)CCCN(CC2CCCCC2)CCCN(S(=O)(=O)N2CCC(c3cccc(Cl)c3)CC2)C1 [A58, 4-[(5-{[4-(3-chlorophenyl)piperidin-1-yl]sulfonyl}-9-(cyclohexylmethyl)-3-methylidene-1,5,9-triazacyclododecan-1-yl)sulfonyl]-N,N-dimethylaniline]
IC50 [1]: 72.1 nM | IC50 [2]: 8500 nM | EC50 [3]: > 25000 nM | EC50 [4]: > 25000 nM | Liver Microsome Stability-% Left after 30 min w/ NADPH (%) Human [5]: 31.6% | Liver Microsome Stability-% Left after 30 min w/ NADPH (%) Mouse [6]: 72.8% | Liver Microsome Stability-% Left after 30 min w/ NADPH (%) Rat [7]: 66.7% | Liver Microsome Stability-% Left after 30 min w/ NADPH (%) Monkey [8]: 53.1%
